Laboratory results reported in patent US9540691B2, “Assays and methods for selecting a treatment regimen for a subject with depression” (THE GENERAL HOSPITAL CORPORATION, priority 2011, dated 2017).
Like-named read-outs stand apart in the source and are kept apart here.

Tested on: patients with major depressive disorder (MDD) resistant to treatment with SSRIs
Excerpt: Using the sequential parallel design […] For those randomly assigned to the placebo/placebo sequence, both responders and non-responders to placebo during the first phase (n=25) remain on placebo during the second phase. […] Data from the previous double-blind, placebo-controlled study (Trial 1) can be pooled into the instant study (Trial 2) to provide a more accurate estimate of the placebo effect size, with a weighted average from the two Phases 1 (one from Trial 1 and one from Trial 2) and two Phases 2 (one from Trial 1 and one from Trial 2).
Once patients agree to participate in the study by signing the informed consent document, a full medical and psychiatric history is taken and a physical examination is performed. Screen rating scales are performed. […] The double-blind treatment lasts 60 days, during which patients are seen every 10 days (Visits 1 to 6 of Phase 1—See Table 4 below). Subjects are assigned randomization numbers in consecutive order. The randomization list is provided by a computer-generated random-number list and is maintained by the research pharmacist. In addition, the presence of any side effect or adverse event is carefully documented with the SAFTEE-SI [54]. Reasons for premature discontinuation, including intolerable side effects, are recorded.
All patients are asked to take one tablet of blinded study medication in the morning, in addition to their stable dose of ongoing SSRI treatment. […] Therefore, for patients randomly assigned to the placebo/placebo sequence, the tablets of study medication are placebo during both phases of the study.
The primary efficacy measure can include the change in 17-item Hamilton Rating Scale for Depression (HAM-D-17) score. […] A remission is, for example, defined as a HAM-D-17 score less than 8 at endpoint. Secondary measures of efficacy can include change in CGI-severity, with “clinical response defined” as CGI-S of 1 or 2 at endpoint. Patients with a CGI-I score greater than 5 at any post baseline visit or a 50 percent or greater worsening of depressive symptoms from baseline to that visit are discontinued from the study. Subjects are also discontinued from the study with any emergence of suicidality, homicidality, mania, or psychosis. Additional exemplary instruments that can be administered according to the study schedule include the following: • (1) Structured Clinical Interview for DSM-IV: The SCID-I/P, administered by the clinician, proceeds by modules to diagnose the different Axis I disorders. Questions are asked exactly as written, and each is based on the individual criteria from DSM-IV. Answers are generally rated on a scale of 1-3 (1=doubtful, 2=probable, 3=definite), and, based on the number of positive answers, a diagnosis is determined by a clinician. While the entire SCID-UP is administered at screen, the mood module is administered at each follow up visit. • (2) The MGH Antidepressant Treatment History Questionnaire (MGH-ATR): The MGH-ATR provides specific criteria for the adequate dose and adequate length of a trial for it to be considered a failure, thus allowing clinicians to systematically collect data aimed at assessing the degree of treatment-resistance of the current major depressive episode. • (3) The 28-item Hamilton Depression Scale (HAM-D-28): This version allows scoring of the HAM-D-17, 21-, 25-, and 28-item scales. This instrument is completed by the clinician by using a structured interview and defined anchor points, and aims to quantify the degree of depression over the past 7 days. The HAM-D is the most widely studied instrument for depression, and its reliability and validity are high. • (4) Clinical Global Impressions-Severity and Improvement (CGI-S, CGI-I): These two instruments are scored 1-7 by the clinician based on assessment of the patient's clinical status. They measure, based on history and scores on other instruments: a) Depressive severity (CGI-S) and b) Clinical Improvement (CGI-I). […] Safety Measurements […]

[1] = 15 mg/day adjunct to SSRI, Phase 1
[2] = 15 mg/day adjunct to SSRI, Phase 2 (Phase 1 completers/non-responders only)
[3] = 15 mg/day adjunct to SSRI, pooled Phases 1 and 2 (SPCD)

For `CN1c2c(nc(N)[nH]c2=O)NC[C@@H]1CNc1ccc(C(=O)N[C@@H](CCC(=O)O)C(=O)O)cc1` [6(S)-5-MTHF, 6(S)-5-methyltetrahydrofolate], the “CGI-S Mean score reduction (SD)” value [1] was −1.3 (0.9), the “HDRS-17 % Remission” value [1] was 15.7% (3) and the “HDRS-17 % Response” value [1] was 38.8% (7). The “HDRS-17 Mean score reduction (SD)” value [1] was −7.5 (5.0), the “QIDS-SR % Remission” value [1] was 21.0% (4) and the “QIDS-SR % Responsive” value [1] was 36.8% (7). The “QIDS-SR Mean score reduction (SD)” value [1] was −8.1 (5.3), the “CGI-S Mean score reduction (SD)” value [2] was −0.5 (1.0) and the “HDRS-17 % Remission” value [2] was 11.1% (2). For the same compound, the “HDRS-17 % Response” value [2] was 27.7% (5), the “HDRS-17 Mean score reduction (SD)” value [2] was −3.8 (6.2) and the “QIDS-SR % Remission” value [2] was 8.5% (1). The “QIDS-SR % Responsive” value [2] was 11.1% (2), the “QIDS-SR Mean score reduction (SD)” value [2] was −1.3 (4.9) and the “CGI-S Mean score reduction” value [3] was −0.92. For the same compound, the “QIDS-SR % Remission” value [3] was 12.3%, the “QIDS-SR % Responsive” value [3] was 23.9% and the “QIDS-SR Mean score reduction” value [3] was −4.7. The “response rate (50% or greater reduction in HAM-D-17) vs placebo group (in words)” value (SSRI + 15 mg/day, after 30 days, SPCD, FIG. 3A) was “higher”, the “reduction in scores of HAM-D-17, QIDS-SR and CGI-S vs placebo group (in words)” value (SSRI + 15 mg/day, after 30 days, SPCD, FIG. 3B) was “greater degree of reduction” and the “percentage of remitters (HAM-D-17 <8 or QIDS-SR ≦5) vs placebo (in words)” value (SSRI + 15 mg/day, after 30 days, FIGS. 3C-3D) was “no significant difference”.
